The values that follow come from patent publication US20260207522A1, “YEAST CELL WALL PARTICLE ENCAPSULATION OF BIODEGRADABLE PRO-PAYLOADS” (UNIVERSITY OF MASSACHUSETTS, priority 2018, published 2026).

The nature of data set [1]: loading into yeast cell wall particles. Format: physicochemical. As for the experimental part: To create encapsulated pro-payloads, water-insoluble pro-payloads are dissolved in a suitable solvent compatible with the glucan particles (e.g., dimethylsulfoxide, methanol, etc.). After loading the pro-payloads into glucan shells, the glucan particle pro-payload is processed to remove the solvent.
The pro-payload CS-AcA was dissolved in a suitable solvent and combined with extracted yeast cell wall particles to create encapsulated CS-AcA.
The pro-payload INH-LA was dissolved in a suitable solvent and combined with extracted yeast cell wall particles to create encapsulated INH-LA.

Data set [2] in a line: in vitro release assay of naproxen from YCWPs. In kind it is physicochemical. The conditions noted are these: pH 7. As for the experimental part:
The pro-payload Nap-An was dissolved in a suitable solvent and combined with extracted yeast cell wall particles to create encapsulated Nap-An.

Another data set concerns H. pylori. The conditions noted are these: concentration of 2 mg/L; cited from earlier work.
In another data set the test system is C. albicans. The conditions noted are these: Bard et al.; cited from earlier work.
The test system of a further data set is S. cerevisiae. The settings on record: Bard et al.; cited from earlier work.

As for `N[C@@H]1CON=C1O` [CS, cycloserine], in data set [1], the “amount loaded into yeast cell wall particles” value is given as not above 14%.
As to `NNC(=O)c1ccncc1` [INH, isoniazid], the “amount loaded into yeast cell wall particles” value in data set [1] came out at 0%.
Consider `CCCCCCCCCCCC(=O)NNC(=O)c1ccncc1` [INH-LA, isoniazid lauric acid], for which the “amount loaded into yeast cell wall particles” value in data set [1] is recorded as “up to 89%”.
Take `COc1ccc2cc(C(C)C(=O)OC(=O)C(C)c3ccc4cc(OC)ccc4c3)ccc2c1` (stereo not shown) [Nap-An, naproxen anhydride]: in data set [2], the “50% release time (RT50)” value is “greater than 13.5 hours”.
Consider `CC(C)=CCC/C(C)=C/CO` [geraniol], for which the “in vitro growth of H. pylori” value with H. pylori is given as “inhibited”. In the data set with C. albicans, the “growth of C. albicans strains” value is recorded as “inhibit the growth”. In addition, the “growth of S. cerevisiae strains” value in the data set with S. cerevisiae is “inhibit the growth”.
As to cycloserine acetylacetone [CS-AcA], in data set [1], the “amount loaded into yeast cell wall particles” value was not above 70%.
Consider doxorubicin-isoniazid [Dox-INH], for which the “amount loaded into yeast cell wall particles” value in data set [1] was “up to 61%”.
As for “doxorubicin-isophorone diisocyanate [Dox-IPDI]”, the “amount loaded into yeast cell wall particles” value in data set [1] was “up to 92%”.
